Reference: ChEMBL document CHEMBL1817617, “Novel macrocyclic C-aryl glucoside SGLT2 inhibitors as potential antidiabetic agents” (Bioorg Med Chem, 2011)

test system: Rattus norvegicus; test: Antidiabetic activity in Sprague-Dawley rat assessed as induction of urinary glucose excretion per 200 gram of body weight at 1 mg/kg, po; format: functional, Urine

SMILES	Activity [mg]
CCOc1ccc(Cc2cc3c(cc2Cl)OCCCCCOC[C@H]2O[C@@H]3[C@H](O)[C@@H](O)[C@@H]2O)cc1	226
CCc1ccc(Cc2cc3c(cc2Cl)OCCCCCOC[C@H]2O[C@@H]3[C@H](O)[C@@H](O)[C@@H]2O)cc1	116
CCOc1ccc(Cc2cc([C@@H]3O[C@H](CO)[C@@H](O)[C@H](O)[C@H]3O)ccc2Cl)cc1 [DAPAGLIFLOZIN]	1648

target: T1, Sodium/glucose cotransporter 2 (Homo sapiens, UniProt P31639); test: Inhibition of human SGLT2 expressed in CHO cells assessed as reduction of [14C]-labeled AMG after 2 hrs by liquid scintillation counting; format: cell-based
T1 sequence (P31639 whole entry): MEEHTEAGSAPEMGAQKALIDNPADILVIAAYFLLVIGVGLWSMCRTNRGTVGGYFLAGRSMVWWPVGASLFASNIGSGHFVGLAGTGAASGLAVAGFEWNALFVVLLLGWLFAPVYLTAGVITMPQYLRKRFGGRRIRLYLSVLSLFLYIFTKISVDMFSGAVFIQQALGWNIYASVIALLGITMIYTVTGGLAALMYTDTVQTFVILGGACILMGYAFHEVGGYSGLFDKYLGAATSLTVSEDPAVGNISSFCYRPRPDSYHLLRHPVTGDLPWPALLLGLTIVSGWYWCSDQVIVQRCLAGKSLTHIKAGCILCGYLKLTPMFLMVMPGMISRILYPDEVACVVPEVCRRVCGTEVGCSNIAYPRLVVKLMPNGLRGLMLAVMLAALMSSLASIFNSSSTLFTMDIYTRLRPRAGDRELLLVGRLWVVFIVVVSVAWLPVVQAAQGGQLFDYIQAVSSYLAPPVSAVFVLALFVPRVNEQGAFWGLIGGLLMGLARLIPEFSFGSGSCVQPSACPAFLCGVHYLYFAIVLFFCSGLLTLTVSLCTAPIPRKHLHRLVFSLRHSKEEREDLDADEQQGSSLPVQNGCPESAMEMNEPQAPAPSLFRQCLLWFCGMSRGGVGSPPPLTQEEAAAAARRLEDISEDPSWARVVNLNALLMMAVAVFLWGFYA

IC50 [nM]	SMILES
1.59	CCc1ccc(Cc2cc3c(cc2Cl)OCCCOC[C@H]2O[C@@H]3[C@H](O)[C@@H](O)[C@@H]2O)cc1
2.95	CCOc1ccc(Cc2cc3c(cc2Cl)OCCCOC[C@H]2O[C@@H]3[C@H](O)[C@@H](O)[C@@H]2O)cc1
1.34	CCOc1ccc(Cc2cc3c(cc2Cl)OCCOC[C@H]2O[C@@H]3[C@H](O)[C@@H](O)[C@@H]2O)cc1
